# In patent US5707966A, “Antithrombotic agents” (Eli Lilly and Company, priority 1995, dated 1998):
# Where a name gives a salt, the structure may show the parent alone. Read-outs that look alike come from different tables or passages of the source.
# Key:
# Human Thrombin = Human Thrombin (Homo sapiens, UniProt P00734); assay: Inhibition of amidase activity of thrombin (Kass); format: biochemical
# factor Xa = molecular target: T1, factor Xa (Homo sapiens, UniProt P00742); assay: Kass with factor Xa, chromogenic substrate; format: biochemical
# T1 construct: Human factors X, Xa, IXa, XIa, and XIIa are purchased; purchased Enzyme Research Laboratories, South Bend, Ind
# Bovine trypsin = molecular target: T2, Bovine trypsin (Bos taurus, UniProt P00760); assay: Kass with trypsin, chromogenic substrate; format: biochemical
# T2 construct: Bovine trypsin is purchased; purchased Worthington Biochemicals, Freehold, N.J
# T2 sequence (P00760 24-246): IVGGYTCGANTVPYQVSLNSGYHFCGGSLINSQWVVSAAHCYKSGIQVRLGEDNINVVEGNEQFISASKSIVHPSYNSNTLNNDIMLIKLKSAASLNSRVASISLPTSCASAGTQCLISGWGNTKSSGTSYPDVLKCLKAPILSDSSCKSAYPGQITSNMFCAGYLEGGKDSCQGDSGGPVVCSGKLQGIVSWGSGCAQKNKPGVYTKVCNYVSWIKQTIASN
# Human plasmin = molecular target: T3, Human plasmin (Homo sapiens, UniProt P00747); assay: Kass with plasmin, chromogenic substrate; format: biochemical
# T3 construct: Human plasmin is purchased; purchased Boehringer Mannheim, Indianapolis, Ind
# t-PA = molecular target: T4, t-PA (Homo sapiens, UniProt P00750); assay: Kass with t-PA, chromogenic substrate; format: biochemical; details: substrate H-D-Ile-Pro-Arg-p-nitroanilide
# T4 construct: purchased American Diagnostica, Greenwich, Conn
# Human plasma [1] = assay: Human plasma anticoagulation, thrombin time (TT); format: biochemical; details: concentration required to double the thrombin time, linear extrapolation
# In short: (§1)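 Prolongation of human plasma clotting was measured for PT (thromboplastin reagent), APTT (Actin, 120 s, then 0.02M CaCl2) and TT (bovine thrombin, 10 NIH units/mL). Concentration needed for a doubled time was estimated by linear extrapolation.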
# [2] = Index of bioavailability (% Relative Activity, plasma TT AUC oral vs i.v.); format: in vivo; details: dose-adjusted AUC of plasma TT, p.o. vs i.v. bolus
# Procedure: Parke Davis) at 37° C. […] Assays are done in duplicate and averaged. […] Each sample population represented alternating sequential time points.
# Human plasma [3] = assay: Human plasma anticoagulation, activated partial thromboplastin time (APTT); format: biochemical; details: concentration required to double the APTT, linear extrapolation
# In short: as §1
# Human plasma [4] = assay: Human plasma anticoagulation, prothrombin time (PT); format: biochemical; details: concentration required to double the PT, linear extrapolation
# In short: as §1
# [5] = mean over a range of concentrations, […]
# [6] = substrate N-Benzoyl-Ile-Glu-Gly-Arg-p-nitroanilide
# [7] = substrate N-Benzoyl-Phe-Val-Arg-p-nitroanilide
# [8] = substrate H-D-Val-Leu-Lys-p-nitroanilide
# T4 sequence (P00750 36-562): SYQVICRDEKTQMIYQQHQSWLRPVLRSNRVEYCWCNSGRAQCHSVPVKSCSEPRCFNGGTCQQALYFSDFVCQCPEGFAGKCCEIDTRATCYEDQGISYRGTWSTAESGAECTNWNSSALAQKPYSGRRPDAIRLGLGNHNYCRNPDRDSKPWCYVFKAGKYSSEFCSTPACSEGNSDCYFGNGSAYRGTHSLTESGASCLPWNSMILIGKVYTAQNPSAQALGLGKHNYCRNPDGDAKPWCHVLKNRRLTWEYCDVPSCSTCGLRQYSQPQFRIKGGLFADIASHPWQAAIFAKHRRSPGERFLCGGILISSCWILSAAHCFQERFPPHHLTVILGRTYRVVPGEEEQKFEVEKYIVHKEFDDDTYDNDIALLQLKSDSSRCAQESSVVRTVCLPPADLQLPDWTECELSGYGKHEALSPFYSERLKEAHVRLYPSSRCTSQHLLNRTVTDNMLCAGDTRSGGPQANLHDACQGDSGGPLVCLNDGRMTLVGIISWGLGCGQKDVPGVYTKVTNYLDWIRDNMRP
# T1 sequence (P00742 235-488 limits assumed): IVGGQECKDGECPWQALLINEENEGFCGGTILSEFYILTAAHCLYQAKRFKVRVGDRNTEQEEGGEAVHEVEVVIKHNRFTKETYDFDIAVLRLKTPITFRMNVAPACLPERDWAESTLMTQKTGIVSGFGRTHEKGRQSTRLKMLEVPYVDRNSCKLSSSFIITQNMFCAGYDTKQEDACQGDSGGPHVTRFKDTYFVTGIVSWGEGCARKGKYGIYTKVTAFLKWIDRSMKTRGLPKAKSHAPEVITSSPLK
# T1 sequence (P00742 41-179 partner limits assumed): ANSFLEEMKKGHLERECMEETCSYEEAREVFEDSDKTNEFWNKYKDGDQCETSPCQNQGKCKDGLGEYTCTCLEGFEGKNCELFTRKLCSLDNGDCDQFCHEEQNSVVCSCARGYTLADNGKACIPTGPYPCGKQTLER
# T3 sequence (P00747 97-810): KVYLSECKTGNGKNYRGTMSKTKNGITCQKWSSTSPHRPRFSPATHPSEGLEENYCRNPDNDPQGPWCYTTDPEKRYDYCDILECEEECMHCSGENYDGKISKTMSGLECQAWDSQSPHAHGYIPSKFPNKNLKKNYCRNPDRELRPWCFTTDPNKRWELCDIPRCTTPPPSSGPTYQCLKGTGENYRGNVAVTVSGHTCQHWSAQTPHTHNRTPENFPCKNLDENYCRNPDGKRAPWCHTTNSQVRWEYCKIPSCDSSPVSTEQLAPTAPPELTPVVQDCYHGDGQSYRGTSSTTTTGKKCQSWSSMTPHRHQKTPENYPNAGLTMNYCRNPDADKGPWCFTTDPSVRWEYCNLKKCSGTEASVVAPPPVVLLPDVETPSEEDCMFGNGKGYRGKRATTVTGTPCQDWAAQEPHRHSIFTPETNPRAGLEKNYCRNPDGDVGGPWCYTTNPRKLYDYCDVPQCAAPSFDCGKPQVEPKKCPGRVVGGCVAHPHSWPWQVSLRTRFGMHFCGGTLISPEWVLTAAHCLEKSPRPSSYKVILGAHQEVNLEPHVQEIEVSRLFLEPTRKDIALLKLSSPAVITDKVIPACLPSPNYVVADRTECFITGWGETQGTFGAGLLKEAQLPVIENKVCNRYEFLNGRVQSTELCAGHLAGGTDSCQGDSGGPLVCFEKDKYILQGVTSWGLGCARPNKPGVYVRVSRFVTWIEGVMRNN
# T3 sequence (P00747 97-580 partner limits assumed): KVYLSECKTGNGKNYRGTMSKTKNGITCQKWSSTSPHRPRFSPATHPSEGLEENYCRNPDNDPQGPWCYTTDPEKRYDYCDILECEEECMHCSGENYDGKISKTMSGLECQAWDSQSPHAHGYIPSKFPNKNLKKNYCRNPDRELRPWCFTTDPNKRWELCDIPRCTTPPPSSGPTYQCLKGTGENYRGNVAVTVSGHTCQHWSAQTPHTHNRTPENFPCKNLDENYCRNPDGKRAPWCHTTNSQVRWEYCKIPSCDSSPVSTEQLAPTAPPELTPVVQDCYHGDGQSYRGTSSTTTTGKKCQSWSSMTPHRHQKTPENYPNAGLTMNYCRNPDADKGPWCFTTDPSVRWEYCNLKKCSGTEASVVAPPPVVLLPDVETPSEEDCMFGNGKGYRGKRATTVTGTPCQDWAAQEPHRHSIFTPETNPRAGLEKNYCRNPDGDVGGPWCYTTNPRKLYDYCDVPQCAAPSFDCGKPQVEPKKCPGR
Kass t-PA (t-PA),Kass Human Thrombin (Human Thrombin; [5]),Kass Xa (factor Xa; [6]),Kass Trypsin (Bovine trypsin; [7]),Kass Plasmin (Human plasmin; [8]),Compound,Kass Human Thrombin (Human Thrombin),Kass Xa (factor Xa),Kass Trypsin (Bovine trypsin),Kass Plasmin (Human plasmin),Human Plasma Anticoagulation 2× Clotting time TT (Human plasma [1]),% oral/i.v. activity (Rat) [2],Human Plasma Anticoagulation 2× Clotting time APTT (Human plasma [3]),Human Plasma Anticoagulation 2× Clotting time PT (Human plasma [4])
0.0034 × 10^6 (L/mole),33 × 10^6 (L/mole),0.049 × 10^6 (L/mole),3.8 × 10^6 (L/mole),0.024 × 10^6 (L/mole),D-hPro-Pro-p-NHCH2 C6 H4 C(NH)NH2.HCl [Example 17],,,,,26 ng/mL,,370 ng/mL,400 ng/mL
0.31 × 10^6 (L/mole),770 × 10^6 (L/mole),0.14 × 10^6 (L/mole),21 × 10^6 (L/mole),0.44 × 10^6 (L/mole),EtSO2 -D-Phe-Pro-p-NHCH2 --C6 H4 C(=NH)NH2.HCl [Example 23],,,,,7 ng/mL,,86 ng/mL,120 ng/mL

# Further lines, the compound ahead of its results:
Compound,Kass t-PA (t-PA),Kass Human Thrombin (Human Thrombin; [5]),Kass Xa (factor Xa; [6]),Kass Trypsin (Bovine trypsin; [7]),Kass Plasmin (Human plasmin; [8]),Kass Human Thrombin (Human Thrombin),Kass Xa (factor Xa),Kass Trypsin (Bovine trypsin),Kass Plasmin (Human plasmin),Human Plasma Anticoagulation 2× Clotting time TT (Human plasma [1]),% oral/i.v. activity (Rat) [2],Human Plasma Anticoagulation 2× Clotting time APTT (Human plasma [3]),Human Plasma Anticoagulation 2× Clotting time PT (Human plasma [4])
"CCS(=O)(=O)N[C@H](Cc1ccccc1)C(=O)N1CCC[C@H]1C(=O)NCCCCNC(=N)N [Example 1, EtSO2 -D-Phe-Pro-Agm.HCl]",0.082 × 10^6 (L/mole),,,,,3.3,0.0017,0.38,0.010,250 ng/mL,8%,,
D-hPro-N(PhCH2 CH2)Gly-p-NHCH2 --C6 H4 C(NH)NH2.2HCl [Example 21],0.002 × 10^6 (L/mole),3.6 × 10^6 (L/mole),0.62 × 10^6 (L/mole),0.96 × 10^6 (L/mole),0.031 × 10^6 (L/mole),,,,,160 ng/mL,,"2,000 ng/mL","1,000 ng/mL"
D-hPro-Pro(4-cis-PhO)-p-NHCH2 --C6 H4 C(NH)NH2.2HCl [Example 22],0.004 × 10^6 (L/mole),3.0 × 10^6 (L/mole),0.043 × 10^6 (L/mole),8.5 × 10^6 (L/mole),0.042 × 10^6 (L/mole),,,,,170 ng/mL,,"2,300 ng/mL","1,000 ng/mL"
HOOCCH2 -D-Phe-Pro-p-NHCH2 C6 H4 C(NH)NH2.HCl [Example 46],0.01 × 10^6 (L/mole),,,48 × 10^6 (L/mole),,240,0.07,,0.13,2 ng/mL,,67 ng/mL,77 ng/mL
